Test results from patent CN109329202A, “一种有效抑制n-羟乙酰神经氨酸合成的方法” (Guizhou University, priority 2018, dated 2019).

Tested on: Neu5Gc synthesis [Neu5Gc的合成]
Test: Neu5Gc degradation in rat muscle, liver and kidney after 30 d oral gavage (HPLC after DMB derivatisation)
Format: in vivo
Details: male SD rats, oral gavage 200 mg/(kg.d) in 0.5% sodium carboxymethylcellulose, vs blank control (HPLC peak area)

SMILES: O=c1c(O)c(-c2ccc(O)cc2)oc2cc(O)cc(O)c12 [山奈酚]
- Neu5Gc degradation rate, kidney sample (kidney): 17.55%
- Neu5Gc degradation rate, liver sample (liver): 6.315%
- Neu5Gc degradation rate, meat sample (thigh muscle): 13.356%
